The text below walks through data of ChEMBL document CHEMBL3797059 (Bioorg Med Chem Lett, 2016).

Calls of active or inactive are those of the source. The calls are words filed in the database; no cut-off is given here. Bounds are passed on as bounds.

Assay [1] addresses T1, Fibroblast growth factor receptor 2 (Homo sapiens, UniProt P21802). In words: Inhibition of FGFR2 (unknown origin) at 1 nM using (Glu,Tyr)4:1 as substrate incubated for 60 mins by ELISA. Background: In an ELISA, binding on a coated surface is turned into a signal by an enzyme label.
Target sequence in this assay (P21802 22-821 limits assumed): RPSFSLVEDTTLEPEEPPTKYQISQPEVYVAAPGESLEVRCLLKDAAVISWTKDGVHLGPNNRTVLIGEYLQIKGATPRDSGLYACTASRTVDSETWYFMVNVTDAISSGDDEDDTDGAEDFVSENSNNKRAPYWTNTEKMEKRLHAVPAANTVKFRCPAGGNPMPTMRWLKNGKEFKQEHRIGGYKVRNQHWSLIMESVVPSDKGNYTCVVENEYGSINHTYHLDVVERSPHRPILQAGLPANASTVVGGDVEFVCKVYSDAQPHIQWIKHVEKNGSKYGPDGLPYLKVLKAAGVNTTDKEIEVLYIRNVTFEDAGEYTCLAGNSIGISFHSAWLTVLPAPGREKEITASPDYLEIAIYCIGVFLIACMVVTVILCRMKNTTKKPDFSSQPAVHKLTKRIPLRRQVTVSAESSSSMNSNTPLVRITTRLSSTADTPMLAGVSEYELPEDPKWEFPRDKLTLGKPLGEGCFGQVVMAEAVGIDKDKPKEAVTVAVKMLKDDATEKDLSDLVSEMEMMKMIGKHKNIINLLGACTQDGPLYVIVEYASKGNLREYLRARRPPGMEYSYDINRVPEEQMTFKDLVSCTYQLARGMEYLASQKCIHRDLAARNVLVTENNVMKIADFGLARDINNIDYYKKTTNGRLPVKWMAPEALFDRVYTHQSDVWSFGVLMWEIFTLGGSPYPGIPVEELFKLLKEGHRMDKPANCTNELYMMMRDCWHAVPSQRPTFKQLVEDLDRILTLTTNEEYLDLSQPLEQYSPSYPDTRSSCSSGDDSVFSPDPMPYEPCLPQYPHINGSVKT
Assay [2] deals with Vascular endothelial growth factor receptor 2 (Homo sapiens, UniProt P35968). In words: Inhibition of recombinant VEGFR2 (unknown origin) using (Glu,Tyr)4:1 as substrate incubated for 60 mins by ELISA.
Chain of Vascular endothelial growth factor receptor 2 (P35968 whole entry): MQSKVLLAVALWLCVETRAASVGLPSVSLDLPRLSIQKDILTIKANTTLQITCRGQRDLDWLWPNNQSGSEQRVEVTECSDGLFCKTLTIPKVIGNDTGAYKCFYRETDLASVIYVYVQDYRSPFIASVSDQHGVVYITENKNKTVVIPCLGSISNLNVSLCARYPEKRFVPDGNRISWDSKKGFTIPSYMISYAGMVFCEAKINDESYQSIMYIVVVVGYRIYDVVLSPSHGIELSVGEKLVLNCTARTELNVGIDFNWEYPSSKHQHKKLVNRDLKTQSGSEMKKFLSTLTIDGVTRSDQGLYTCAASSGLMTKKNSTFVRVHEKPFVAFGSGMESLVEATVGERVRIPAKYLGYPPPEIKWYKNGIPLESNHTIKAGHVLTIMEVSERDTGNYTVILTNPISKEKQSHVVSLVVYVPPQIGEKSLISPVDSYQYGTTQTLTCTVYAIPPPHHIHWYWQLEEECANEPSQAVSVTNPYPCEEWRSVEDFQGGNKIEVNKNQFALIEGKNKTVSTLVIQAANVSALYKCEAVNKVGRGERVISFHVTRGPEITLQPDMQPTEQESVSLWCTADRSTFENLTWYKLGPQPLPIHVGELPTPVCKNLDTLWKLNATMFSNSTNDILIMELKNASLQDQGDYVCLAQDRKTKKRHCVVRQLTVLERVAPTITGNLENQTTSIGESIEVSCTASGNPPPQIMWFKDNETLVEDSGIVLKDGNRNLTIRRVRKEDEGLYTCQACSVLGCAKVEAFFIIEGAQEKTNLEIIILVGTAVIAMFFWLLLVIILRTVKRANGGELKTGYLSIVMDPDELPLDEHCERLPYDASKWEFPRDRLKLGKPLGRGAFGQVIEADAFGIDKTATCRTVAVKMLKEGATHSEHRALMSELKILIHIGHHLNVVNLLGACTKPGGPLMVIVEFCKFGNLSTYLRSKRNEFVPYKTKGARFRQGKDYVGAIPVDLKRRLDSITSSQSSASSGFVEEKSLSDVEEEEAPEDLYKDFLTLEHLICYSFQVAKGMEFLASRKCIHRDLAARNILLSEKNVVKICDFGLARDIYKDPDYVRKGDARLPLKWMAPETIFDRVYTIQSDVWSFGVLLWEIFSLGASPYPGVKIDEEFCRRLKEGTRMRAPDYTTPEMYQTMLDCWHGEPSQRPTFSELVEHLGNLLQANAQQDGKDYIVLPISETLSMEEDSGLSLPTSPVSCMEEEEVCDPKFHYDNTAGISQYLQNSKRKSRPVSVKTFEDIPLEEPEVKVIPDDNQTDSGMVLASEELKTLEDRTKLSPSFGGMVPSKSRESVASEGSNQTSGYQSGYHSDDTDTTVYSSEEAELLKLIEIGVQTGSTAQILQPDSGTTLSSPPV
In assay [3] the target is T1, Fibroblast growth factor receptor 2. The experiment in a line: Inhibition of recombinant FGFR2 (unknown origin) at 10 nM using (Glu,Tyr)4:1 as substrate incubated for 60 mins by ELISA.
Target sequence in this assay (P21802 22-821 limits assumed): as the sequence (P21802 22-821 limits assumed) above
Assay [4] deals with T2, Fibroblast growth factor receptor 1 (Homo sapiens, UniProt P11362). The experiment in a line: Inhibition of FGFR1 phosphorylation in human KG1 cells assessed as reduction of phospho-ERK level at 0.4 to 10 nM incubated for 2 hrs by Western blot analysis. Conditions: KG-1. In kind it is cell-based. On the technique in general: Immunoblotting shows a protein as a band on a membrane.
Target sequence in this assay (P11362 22-822 limits assumed): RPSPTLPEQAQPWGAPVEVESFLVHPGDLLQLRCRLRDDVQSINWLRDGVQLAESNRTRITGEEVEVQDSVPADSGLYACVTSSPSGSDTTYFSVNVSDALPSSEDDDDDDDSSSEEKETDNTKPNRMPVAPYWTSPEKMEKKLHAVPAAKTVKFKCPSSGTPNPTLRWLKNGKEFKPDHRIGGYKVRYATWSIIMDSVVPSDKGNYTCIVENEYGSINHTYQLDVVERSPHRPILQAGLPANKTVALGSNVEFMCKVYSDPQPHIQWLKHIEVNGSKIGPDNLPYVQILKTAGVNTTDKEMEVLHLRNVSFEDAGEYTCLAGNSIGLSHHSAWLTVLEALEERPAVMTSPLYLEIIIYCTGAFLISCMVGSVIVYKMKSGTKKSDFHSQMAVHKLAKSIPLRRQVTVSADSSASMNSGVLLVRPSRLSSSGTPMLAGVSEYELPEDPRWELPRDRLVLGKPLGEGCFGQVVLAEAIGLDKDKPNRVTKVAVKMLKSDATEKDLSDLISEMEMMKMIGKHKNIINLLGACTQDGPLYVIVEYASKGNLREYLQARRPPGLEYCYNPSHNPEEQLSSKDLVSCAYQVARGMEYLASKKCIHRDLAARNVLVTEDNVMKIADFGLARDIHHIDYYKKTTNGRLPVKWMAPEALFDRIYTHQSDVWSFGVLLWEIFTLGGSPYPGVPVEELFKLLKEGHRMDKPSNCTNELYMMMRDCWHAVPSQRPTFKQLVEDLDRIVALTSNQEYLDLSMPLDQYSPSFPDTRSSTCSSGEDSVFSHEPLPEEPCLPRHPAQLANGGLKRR

For assay [5], the target named is T2, Fibroblast growth factor receptor 1. In words: Inhibition of FGFR1 phosphorylation in human KG1 cells assessed as reduction of phospho-PLCgamma level at 0.4 to 10 nM incubated for 2 hrs by Western blot analysis. The assay is classed as cell-based. Conditions: KG-1.
Target sequence in this assay (P11362 22-822 limits assumed): as above
For assay [6] the target is unchanged. In words: Inhibition of recombinant FGFR1 (unknown origin) using (Glu,Tyr)4:1 as substrate incubated for 60 mins by ELISA.
Assay [7] has the same target. In words: Inhibition of FGFR1 phosphorylation in human KG1 cells incubated for 2 hrs by Western blot analysis. The assay is classed as cell-based. Conditions: KG-1.
Target sequence in this assay (P11362 22-822 limits assumed): as above
Assay [8] has as its target Fibroblast growth factor receptor 4 (Homo sapiens, UniProt P22455). The experiment in a line: Inhibition of recombinant FGFR4 (unknown origin) using (Glu,Tyr)4:1 as substrate incubated for 60 mins by ELISA.
The target of assay [9] is Fibroblast growth factor receptor 3 (Homo sapiens, UniProt P22607). The experiment in a line: Inhibition of recombinant FGFR3 (unknown origin) using (Glu,Tyr)4:1 as substrate incubated for 60 mins by ELISA.
Chain of Fibroblast growth factor receptor 3 (P22607 whole entry): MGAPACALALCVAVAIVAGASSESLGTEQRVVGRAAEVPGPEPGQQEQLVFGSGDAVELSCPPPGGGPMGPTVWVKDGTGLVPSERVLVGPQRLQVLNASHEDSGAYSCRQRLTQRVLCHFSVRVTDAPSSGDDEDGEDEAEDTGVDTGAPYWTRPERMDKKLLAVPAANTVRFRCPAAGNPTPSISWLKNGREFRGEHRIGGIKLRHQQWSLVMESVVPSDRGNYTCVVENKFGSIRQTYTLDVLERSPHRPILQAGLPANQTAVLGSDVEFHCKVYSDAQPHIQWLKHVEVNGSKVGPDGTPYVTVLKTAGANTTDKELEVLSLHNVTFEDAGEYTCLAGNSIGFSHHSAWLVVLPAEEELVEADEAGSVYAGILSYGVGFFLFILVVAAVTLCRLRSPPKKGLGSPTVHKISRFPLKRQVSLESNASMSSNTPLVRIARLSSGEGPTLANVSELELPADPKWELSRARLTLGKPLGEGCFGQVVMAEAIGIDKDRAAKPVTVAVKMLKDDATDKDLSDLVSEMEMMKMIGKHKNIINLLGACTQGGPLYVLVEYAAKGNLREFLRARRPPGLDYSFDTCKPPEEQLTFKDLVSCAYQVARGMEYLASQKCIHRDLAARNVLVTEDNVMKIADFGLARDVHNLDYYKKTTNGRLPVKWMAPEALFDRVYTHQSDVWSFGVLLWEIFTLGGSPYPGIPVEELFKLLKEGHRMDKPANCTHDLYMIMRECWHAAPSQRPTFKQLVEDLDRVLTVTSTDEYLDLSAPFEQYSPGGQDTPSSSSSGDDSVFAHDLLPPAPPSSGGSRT
Assay [10] deals with T1, Fibroblast growth factor receptor 2. The experiment in a line: Inhibition of recombinant FGFR2 (unknown origin) using (Glu,Tyr)4:1 as substrate incubated for 60 mins by ELISA.

Chain of Fibroblast growth factor receptor 4 (P22455 whole entry): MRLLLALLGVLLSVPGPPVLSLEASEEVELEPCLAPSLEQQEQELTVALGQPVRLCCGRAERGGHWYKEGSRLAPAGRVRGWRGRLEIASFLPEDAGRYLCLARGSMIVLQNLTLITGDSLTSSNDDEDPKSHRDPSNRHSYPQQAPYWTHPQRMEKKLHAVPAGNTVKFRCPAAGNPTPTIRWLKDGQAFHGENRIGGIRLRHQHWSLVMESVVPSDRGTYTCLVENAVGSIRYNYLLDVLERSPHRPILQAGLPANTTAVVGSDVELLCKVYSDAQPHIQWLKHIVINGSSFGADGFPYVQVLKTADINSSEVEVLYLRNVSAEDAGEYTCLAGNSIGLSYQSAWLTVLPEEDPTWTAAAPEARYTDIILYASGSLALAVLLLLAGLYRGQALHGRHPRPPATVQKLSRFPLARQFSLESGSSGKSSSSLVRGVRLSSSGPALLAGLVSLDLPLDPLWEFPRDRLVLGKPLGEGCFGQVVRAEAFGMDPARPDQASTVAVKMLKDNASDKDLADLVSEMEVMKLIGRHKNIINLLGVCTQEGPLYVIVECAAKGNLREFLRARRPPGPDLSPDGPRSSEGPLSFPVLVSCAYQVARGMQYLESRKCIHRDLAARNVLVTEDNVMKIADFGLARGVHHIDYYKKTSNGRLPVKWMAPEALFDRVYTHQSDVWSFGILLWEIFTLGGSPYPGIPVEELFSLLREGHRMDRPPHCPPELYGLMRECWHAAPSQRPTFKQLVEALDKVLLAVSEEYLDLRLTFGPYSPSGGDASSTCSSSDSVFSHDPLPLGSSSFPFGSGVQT

Usually inhibition stands for the percentage by which the read-out fell short of the control. Molecule `COc1cc(CCc2cc(Nc3ncnc4cc(N5CCCCC5)ccc34)n[nH]2)cc(OC)c1` showed an inhibition in [1] of 87.4%.

As usually defined, the IC50 is the concentration needed to halve the response being measured. For `COc1cc(CCc2cc(Nc3ncnc4cc(NCCN5CCOCC5)ccc34)n[nH]2)cc(OC)c1`, in [2], the half-maximal inhibitory concentration (IC50) was more than 100 nM. Consider `COc1cc(CCc2cc(Nc3ncnc4cc(OC)ccc34)n[nH]2)cc(OC)c1`, for which the inhibition in assay [1] stood at 16.9%; in assay [3], 73.3%.

For `COCCOc1ccc2c(Nc3cc(CCc4cc(OC)cc(OC)c4)[nH]n3)ncnc2c1`, the IC50 in assay [2] is more than 100 nM. For the molecule `COc1cc(CCc2cc(Nc3ncnc4cc(N5CCN6CCCCC6C5)ccc34)n[nH]2)cc(OC)c1` (stereo unspecified), the IC50 in assay [2] was found to be 21.5 nM; in [6], 1 nM; in assay [8] it was 52.7 nM; in assay [9], 5 nM. Further, the inhibition result in assay [4] and in [5] was “Active” in each case. In addition, the inhibition entry in assay [7] is “Dose-dependent effect”. As for `CCN1CCN(c2ccc3c(Nc4cc(CCc5cc(OC)cc(OC)c5)[nH]n4)nc(NCc4cc(C)no4)nc3c2)CC1`, the IC50 in assay [10] is less than 10 nM. With `COc1cc(CCc2cc(Nc3ncnc4cc(N5CCN(S(=O)(=O)c6ccc(C)cc6)CC5)ccc34)n[nH]2)cc(OC)c1`, the inhibition in assay [3] was determined as 41.8%. Regarding `CCN1CCN(c2ccc3c(Nc4cc(CCc5c(Cl)c(OC)cc(OC)c5Cl)[nH]n4)ncnc3c2)CC1`, in assay [2], the 50% inhibitory concentration (IC50) is 17.5 nM. The same measure, in the same setting: for `CCc1nc(Nc2cc(CCc3cc(OC)cc(OC)c3)[nH]n2)c2ccc(N3CCN(CC)CC3)cc2n1` the value was 35.8 nM.
